Measured values: US12637478B2, “Compound, preparation method thereof, and antibiotic composition comprising same” (priority 2020, dated 2026)
≈ marks a conversion by molar mass, not a printed value.

Assays:
[1] = system: S. aureus^MS; assay: MIC by broth microdilution (aerobic pathogens), test strain 1; assay type: cell-based; conditions: Staphylococcus aureus
Description: (§1) The antibacterial activity of the compounds of Examples 1 to 48 of the present invention against aerobic pathogens were evaluated by measuring the minimum concentration of the antibiotic capable of inhibiting bacterial growth by 90% compared to the growth of the non-drug treated control group. MIC was measured by the broth microdilution method based on CLSI standards [Reference: Clinical and Laboratory Standards Institute Document. (2000) Methods for Dilution Antimicrobial Susceptibility Test for Bacteria that Grow Aerobically-Fifth Edition: M7-A5. CLSI, Villanova, PA].
(§2) All 13 strains such as methicillin susceptible Staphylococcus aureus (MSSA), methicillin resistant Staphylococcus aureus (MRSA), Vancomycin resistant Staphylococcus aureus (VRSA), Staphylococcus epidermidis, methicillin resistant Staphylococcus epidermidis, Enterococcus faecalis, Vancomycin resistant Enterococcus faecalis, Enterococcus faecium, Vancomycin resistant Enterococcus faecium were used.

[2] = system: S. aureus^MS; assay: MIC by broth microdilution (aerobic pathogens), test strain 2; assay type: cell-based; conditions: Staphylococcus aureus
Description: as §1, §2

[3] = system: E. faecalis^LinR; assay: MIC by broth microdilution (aerobic pathogens), test strain 9; assay type: cell-based, Linezolid resistant Enterococcus faecalis; conditions: Enterococcus faecalis; test strain 9, E. faecalis^LinR (linezolid resistant); read-out: MIC
Description: as §1, §2

[4] = system: S. epidermis; assay: MIC by broth microdilution (aerobic pathogens), test strain 5; assay type: cell-based; conditions: Staphylococcus epidermidis; test strain 5, S. epidermis; read-out: MIC
Description: as §1, §2

[5] = system: S. epidermis^MR; assay: MIC by broth microdilution (aerobic pathogens), test strain 6; assay type: cell-based, Methicillin resistant Staphylococcus epidermidis; conditions: Staphylococcus epidermidis; test strain 6, S. epidermis^MR (methicillin resistant); read-out: MIC
Description: as §1, §2

[6] = system: E. faecalis; assay: MIC by broth microdilution (aerobic pathogens), test strain 7; assay type: cell-based; conditions: Enterococcus faecalis; test strain 7, E. faecalis; read-out: MIC
Description: as §1, §2

[7] = system: E. faecalis^VanA; assay: MIC by broth microdilution (aerobic pathogens), test strain 8; assay type: cell-based, Vancomycin resistant Enterococcus faecalis; conditions: Enterococcus faecalis; test strain 8, E. faecalis^VanA (vancomycin resistant); read-out: MIC
Description: as §1, §2

[8] = system: C. difficile 9689; assay: MIC by agar dilution against Clostridioides difficile, test strain 13; assay type: cell-based; conditions: test strain 13, C. difficile 9689, anaerobic, agar dilution, read-out: MIC
[9] = system: C. difficile 152; assay: MIC by agar dilution against Clostridioides difficile, test strain 14; assay type: cell-based; conditions: test strain 14, C. difficile 152, anaerobic, agar dilution, read-out: MIC
[10] = system: C. difficile 161; assay: MIC by agar dilution against Clostridioides difficile, test strain 16; assay type: cell-based; conditions: test strain 16, C. difficile 161, anaerobic, agar dilution, read-out: MIC
[11] = system: C. difficile 173; assay: MIC by agar dilution against Clostridioides difficile, test strain 17; assay type: cell-based; conditions: test strain 17, C. difficile 173, anaerobic, agar dilution, read-out: MIC
[12] = system: C. difficile 174; assay: MIC by agar dilution against Clostridioides difficile, test strain 18; assay type: cell-based; conditions: test strain 18, C. difficile 174, anaerobic, agar dilution, read-out: MIC
[13] = system: C. difficile 181; assay: MIC by agar dilution against Clostridioides difficile, test strain 19; assay type: cell-based; conditions: test strain 19, C. difficile 181, anaerobic, agar dilution, read-out: MIC
[14] = system: C. difficile 159; assay: MIC by agar dilution against Clostridioides difficile, test strain 15; assay type: cell-based; conditions: test strain 15, C. difficile 159, anaerobic, agar dilution, read-out: MIC
[15] = system: E. faecium^LinR; assay: MIC by broth microdilution (aerobic pathogens), test strain 12; assay type: cell-based, Linezolid resistant Enterococcus faecium; conditions: Enterococcus faecium; test strain 12, E. faecium^LinR (linezolid resistant); read-out: MIC
Description: as §1, §2

[16] = test strain 1, S. aureus^MS, read-out: MIC
[17] = test strain 2, S. aureus^MS, read-out: MIC

Row | MIC [1, 16] | MIC [2, 17] | MIC [3] | MIC [4] | MIC [5] | MIC [6] | MIC [8] | MIC [9] | MIC [11] | MIC [12] | MIC [13] | Compound | also measured
1 | 0.5 µg/mL (≈ 0.395 µM) | 1 µg/mL (≈ 0.79 µM) | – | 0.25 µg/mL (≈ 0.198 µM) | 0.5 µg/mL (≈ 0.395 µM) | 1 µg/mL (≈ 0.79 µM) | – | – | – | – | – | C/C=C1\NC(=O)[C@H]([C@@H](C)O)NC(=O)c2csc(n2)-c2ccc(-c3nc(-c4nc(C(=O)NC5(C(=O)NCCN6CCN(CCCC#N)CC6)CC5)cs4)cs3)nc2-c2csc(n2)[C@H]([C@@H](C)O)NC(=O)c2csc(n2)[C@H](C(C)C)NC(=O)c2csc1n2 [Compound 31] | MIC [7]: 1 µg/mL (≈ 0.79 µM)
2 | 0.25 µg/mL (≈ 0.203 µM) | 0.5 µg/mL (≈ 0.407 µM) | – | 0.5 µg/mL (≈ 0.407 µM) | 0.5 µg/mL (≈ 0.407 µM) | 0.5 µg/mL (≈ 0.407 µM) | – | – | – | – | – | C/C=C1\NC(=O)[C@H]([C@@H](C)O)NC(=O)c2csc(n2)-c2ccc(-c3nc(-c4nc(C(=O)NC5(C(=O)NCCN6C(=O)CSC6=O)CC5)cs4)cs3)nc2-c2csc(n2)[C@H]([C@@H](C)O)NC(=O)c2csc(n2)[C@H](C(C)C)NC(=O)c2csc1n2 [Compound 36] | MIC [15]: 1 µg/mL (≈ 0.813 µM)
3 | 0.5 µg/mL (≈ 0.389 µM) | 1 µg/mL (≈ 0.778 µM) | 1 µg/mL (≈ 0.778 µM) | 0.25 µg/mL (≈ 0.195 µM) | 1 µg/mL (≈ 0.778 µM) | 1 µg/mL (≈ 0.778 µM) | – | – | – | – | – | C/C=C1\NC(=O)[C@H]([C@@H](C)O)NC(=O)c2csc(n2)-c2ccc(-c3nc(-c4nc(C(=O)NC5(C(=O)NCCN6CCN(CCC(=O)OC)CC6)CC5)cs4)cs3)nc2-c2csc(n2)[C@H]([C@@H](C)O)NC(=O)c2csc(n2)[C@H](C(C)C)NC(=O)c2csc1n2 [Compound 24] | –
4 | 0.25 µg/mL (≈ 0.208 µM) | 0.125 µg/mL (≈ 0.104 µM) | 0.5 µg/mL (≈ 0.417 µM) | – | – | – | 0.25 µg/mL (≈ 0.208 µM) | 0.25 µg/mL (≈ 0.208 µM) | 0.5 µg/mL (≈ 0.417 µM) | 0.25 µg/mL (≈ 0.208 µM) | 1 µg/mL (≈ 0.833 µM) | C/C=C1\NC(=O)[C@H]([C@@H](C)O)NC(=O)c2csc(n2)-c2ccc(-c3nc(-c4nc(C(=O)NC5(C(=O)NCCCCCB(O)O)CC5)cs4)cs3)nc2-c2csc(n2)[C@H]([C@@H](C)O)NC(=O)c2csc(n2)[C@H](C(C)C)NC(=O)c2csc1n2 [Compound 21] | –

Second part, the compound before the results:

Row | Compound | MIC [1, 16] | MIC [2, 17] | MIC [3] | MIC [4] | MIC [5] | MIC [6] | MIC [8] | MIC [9] | MIC [11] | MIC [12] | MIC [13] | also measured
5 | C/C=C1\NC(=O)[C@H]([C@@H](C)O)NC(=O)c2csc(n2)-c2ccc(-c3nc(-c4nc(C(=O)NC5(C(=O)NCCCCCCB(O)O)CC5)cs4)cs3)nc2-c2csc(n2)[C@H]([C@@H](C)O)NC(=O)c2csc(n2)[C@H](C(C)C)NC(=O)c2csc1n2 [Compound 27] | 0.25 µg/mL (≈ 0.206 µM) | 0.5 µg/mL (≈ 0.412 µM) | 0.5 µg/mL (≈ 0.412 µM) | – | – | – | – | – | – | – | – | –
6 | C/C=C1\NC(=O)[C@H]([C@@H](C)O)NC(=O)c2csc(n2)-c2ccc(-c3nc(-c4nc(C(=O)NC5(C(=O)NCCN)CC5)cs4)cs3)nc2-c2csc(n2)[C@H]([C@@H](C)O)NC(=O)c2csc(n2)[C@H](C(C)C)NC(=O)c2csc1n2 [Compound 25] | – | – | – | – | – | – | – | – | – | – | – | MIC [1]: 1 µg/mL (≈ 0.885 µM); MIC [2]: 1 µg/mL (≈ 0.885 µM)
7 | C/C=C1\NC(=O)[C@H]([C@@H](C)O)NC(=O)c2csc(n2)-c2ccc(-c3nc(-c4nc(C(=O)NC5(C(=O)NCc6ncc([N+](=O)[O-])n6C)CC5)cs4)cs3)nc2-c2csc(n2)[C@H]([C@@H](C)O)NC(=O)c2csc(n2)[C@H](C(C)C)NC(=O)c2csc1n2 [Compound 44] | – | – | – | – | – | – | 0.5 µg/mL (≈ 0.408 µM) | 0.25 µg/mL (≈ 0.204 µM) | 0.5 µg/mL (≈ 0.408 µM) | 0.5 µg/mL (≈ 0.408 µM) | 0.5 µg/mL (≈ 0.408 µM) | MIC [10]: 0.25 µg/mL (≈ 0.204 µM)
8 | C/C=C(\NC(=O)c1csc(-c2csc(-c3ccc4c(n3)-c3csc(n3)[C@H]([C@@H](C)O)NC(=O)c3csc(n3)[C@H](C(C)C)NC(=O)c3csc(n3)/C(=C/C)NC(=O)[C@H]([C@@H](C)O)NC(=O)c3csc-4n3)n2)n1)C(=O)NCCn1cc([N+](=O)[O-])nc1C [Compound 41] | – | – | – | – | – | – | 0.5 µg/mL (≈ 0.403 µM) | 0.25 µg/mL (≈ 0.202 µM) | 0.5 µg/mL (≈ 0.403 µM) | 0.25 µg/mL (≈ 0.202 µM) | 1 µg/mL (≈ 0.807 µM) | MIC [14]: 0.5 µg/mL (≈ 0.403 µM); MIC [10]: 0.25 µg/mL (≈ 0.202 µM)
9 | C/C=C1\NC(=O)[C@H]([C@@H](C)O)NC(=O)c2csc(n2)-c2ccc(-c3nc(-c4nc(C(=O)NC5(C(=O)NCCCn6c(=O)[nH]cc([N+](=O)[O-])c6=O)CC5)cs4)cs3)nc2-c2csc(n2)[C@H]([C@@H](C)O)NC(=O)c2csc(n2)[C@H](C(C)C)NC(=O)c2csc1n2 [Compound 22] | 0.25 µg/mL (≈ 0.195 µM) | 0.125 µg/mL (≈ 0.0974 µM) | 0.5 µg/mL (≈ 0.39 µM) | – | – | – | 0.125 µg/mL (≈ 0.0974 µM) | 0.125 µg/mL (≈ 0.0974 µM) | 0.5 µg/mL (≈ 0.39 µM) | 0.125 µg/mL (≈ 0.0974 µM) | – | –
